Results reported in ChEMBL document CHEMBL1133989, “Which aminoglycoside ring is most important for binding? A hydropathic analysis of gentamicin, paromomycin, and analogues” (Bioorg Med Chem Lett, 2001).

Tested on: Ribosomal RNA A-site
Experiment: Binding affinity of aminoglycoside to 16S ribosomal RNA A-site in Escherichia coli
Assay type: nucleic-acid assay

NCC1OC(OC2C(N)CC(N)C(O)C2OC2OC(CO)C(OC3OC(CN)C(O)C(O)C3O)C2O)C(N)C(O)C1O (stereo not drawn)
Kd: 700 nM

NCCC1C(CO)OC(OC2C(O)C(N)CC(N)C2OC2OC(CN)C(O)C(O)C2N)C1O (stereo not drawn)
Kd: 1700 nM

NCCCNCC[C@H]1[C@@H](O)[C@H](O[C@H]2[C@@H](O)[C@H](N)C[C@H](N)[C@H]2O[C@H]2O[C@H](CN)[C@H](O)[C@H](O)[C@H]2N)O[C@@H]1CO
Kd: 260 nM

NC[C@H]1O[C@H](O[C@H]2[C@@H](O[C@@H]3O[C@H](CO)[C@@H](O[C@@H]4O[C@H](CO)[C@H](O)[C@H](O)[C@H]4O)[C@H]3O)[C@@H](O)[C@H](N)C[C@@H]2N)[C@H](N)[C@H](O)[C@@H]1O
Kd: 28000 nM

NC[C@H]1O[C@H](O[C@H]2[C@H](O)[C@@H](O[C@H]3O[C@H](CO)[C@@H](O)[C@H](N)[C@H]3O)[C@H](N)C[C@@H]2N)[C@H](N)[C@@H](O)[C@@H]1O [BEKANAMYCIN]
Kd: 1400 nM

NCCC(O)C(=O)N[C@@H]1C[C@H](N)[C@@H](O[C@H]2O[C@H](CN)[C@@H](O)[C@H](O)[C@H]2N)[C@@H](O[C@@H]2O[C@H](CO)[C@@H](O)[C@H]2O)[C@H]1O (stereo partly drawn) [BUTIROSIN B]
Kd: 27000 nM

NC[C@@H]1O[C@H](O[C@H]2[C@@H](O)[C@H](O[C@@H]3[C@@H](O)[C@H](N)C[C@H](N)[C@H]3O[C@H]3O[C@H](CN)[C@@H](O)[C@H](O)[C@H]3N)O[C@@H]2CO)[C@H](N)[C@@H](O)[C@@H]1O [FRAMYCETIN]
Kd: 19 nM

NC[C@@H]1O[C@@H](O[C@H]2[C@H](O)[C@@H](O[C@H]3O[C@H](CO)[C@@H](O)[C@H](N)[C@H]3O)[C@H](N)C[C@@H]2N)[C@@H](O)[C@H](O)[C@H]1O [KANAMYCIN A]
Kd: 18000 nM

NC[C@H]1O[C@H](O[C@H]2[C@H](O)[C@@H](O)[C@H](N)C[C@@H]2N)[C@H](N)[C@@H](O)[C@@H]1O [NEAMINE]
Kd: 7800 nM

N[C@H]1[C@@H](O[C@H]2[C@H](O)[C@@H](O)[C@H](N)C[C@@H]2N)O[C@H](CO)[C@@H](O)[C@@H]1O [PAROMAMINE]
Kd: < 100000 nM

NC[C@@H]1O[C@H](O[C@H]2[C@@H](O)[C@H](O[C@@H]3[C@@H](O)[C@H](N)C[C@H](N)[C@H]3O[C@H]3O[C@H](CO)[C@@H](O)[C@H](O)[C@H]3N)O[C@@H]2CO)[C@H](N)[C@@H](O)[C@@H]1O [PAROMOMYCIN]
Kd: 200 nM

NC[C@H]1O[C@H](O[C@H]2[C@H](O[C@@H]3O[C@H](CO)[C@@H](O)[C@H]3O)[C@@H](O)[C@H](N)C[C@@H]2N)[C@H](N)[C@@H](O)[C@@H]1O [RIBOSTAMYCIN]
Kd: 25000 nM

NC[C@H]1O[C@H](O[C@H]2[C@H](O)[C@@H](O[C@H]3O[C@H](CO)[C@@H](O)[C@H](N)[C@H]3O)[C@H](N)C[C@@H]2N)[C@H](N)C[C@@H]1O [TOBRAMYCIN]
Kd: 1500 nM
